According to the NIST ThermoML archive (doi:10.1021/je900105g):
Where “and” joins values, the source holds several entries; their conditions need not be identical. Equal values may be shown once.

Conditions: Liquid, Buoyancy - hydrostatic balance with magnetic suspension - one sinker

Cc1ccccc1 [toluene]
Conditions	mass density
293.14 K, 580 kPa	867.3 kg/m3
293.14 K, 2080 kPa	868.44 kg/m3
293.14 K, 2100 kPa	868.49 kg/m3
293.14 K, 4080 kPa	869.92 kg/m3
293.14 K, 6080 kPa	871.41 kg/m3
293.14 K, 8080 kPa	872.84 kg/m3
293.14 K, 10080 kPa	874.27 kg/m3
293.14 K, 10110 kPa	874.35 kg/m3
293.14 K, 15090 kPa	877.74 kg/m3
293.14 K, 15110 kPa	877.83 kg/m3
293.14 K, 20090 kPa	881.09 kg/m3
293.14 K, 20110 kPa	881.18 kg/m3
293.14 K, 25090 kPa	884.33 kg/m3
293.14 K, 25120 kPa	884.42 kg/m3
293.14 K, 30090 kPa	887.47 kg/m3
293.14 K, 30120 kPa	887.56 kg/m3
293.15 K, 2080 kPa	868.48 kg/m3
293.15 K, 4080 kPa	869.98 kg/m3
293.15 K, 6080 kPa	871.45 kg/m3
293.15 K, 8080 kPa	872.9 kg/m3
293.15 K, 10080 kPa	874.33 kg/m3
293.15 K, 15080 kPa	877.8 kg/m3
293.15 K, 20080 kPa	881.15 kg/m3
293.15 K, 25080 kPa	884.39 kg/m3
313.14 K, 590 kPa	848.73 kg/m3
313.14 K, 2090 kPa	850.02 kg/m3
313.14 K, 4090 kPa	851.7 kg/m3
313.14 K, 6090 kPa	853.35 kg/m3
313.14 K, 8090 kPa	854.98 kg/m3
313.14 K, 10090 kPa	856.57 kg/m3
313.14 K, 15090 kPa	860.44 kg/m3
313.14 K, 20090 kPa	864.16 kg/m3
313.14 K, 25090 kPa	867.74 kg/m3
333.14 K, 590 kPa	829.86 kg/m3
333.14 K, 2090 kPa	831.32 kg/m3
333.14 K, 4090 kPa	833.23 kg/m3
333.14 K, 6090 kPa	835.1 kg/m3
333.14 K, 8090 kPa	836.93 kg/m3
333.14 K, 10090 kPa	838.73 kg/m3
333.14 K, 15090 kPa	843.06 kg/m3
333.14 K, 20090 kPa	847.2 kg/m3
333.14 K, 25090 kPa	851.15 kg/m3
333.14 K, 30090 kPa	854.96 kg/m3
353.14 K, 2090 kPa	812.26 kg/m3
353.14 K, 4090 kPa	814.44 kg/m3
353.14 K, 6090 kPa	816.57 kg/m3
353.14 K, 8090 kPa	818.63 kg/m3
353.14 K, 10090 kPa	820.66 kg/m3
353.14 K, 15090 kPa	825.54 kg/m3
353.14 K, 20090 kPa	830.16 kg/m3
353.14 K, 25090 kPa	834.54 kg/m3
353.14 K, 30090 kPa	838.72 kg/m3
373.15 K, 590 kPa	790.76 kg/m3
373.15 K, 2090 kPa	792.7 kg/m3 and 792.76 kg/m3
373.15 K, 4090 kPa	795.21 kg/m3 and 795.27 kg/m3
373.15 K, 6090 kPa	797.64 kg/m3 and 797.7 kg/m3
373.15 K, 8090 kPa	800 kg/m3 and 800.07 kg/m3
373.15 K, 10090 kPa	802.3 kg/m3 and 802.37 kg/m3
373.15 K, 15080 kPa	807.86 kg/m3
373.15 K, 15090 kPa	807.78 kg/m3
373.15 K, 20080 kPa	813.03 kg/m3
373.15 K, 25080 kPa	817.91 kg/m3
373.15 K, 30080 kPa	822.54 kg/m3
373.49 K, 2100 kPa	792.38 kg/m3
373.49 K, 10110 kPa	802.04 kg/m3
373.49 K, 15110 kPa	807.56 kg/m3
373.49 K, 20120 kPa	812.74 kg/m3
373.49 K, 25120 kPa	817.63 kg/m3
373.49 K, 30120 kPa	822.28 kg/m3
